Measured values reported in patent US20250188069A1, “COMPOUNDS AND METHODS FOR DEGRADING CASEIN KINASE 1 ALPHA” (PIN THERAPEUTICS, INC., priority 2022, published 2025).
Structures can show the parent of a compound that is named as a salt.

Legend:
MV-4-11 cells = experiment: AML cell viability assay (RealTime-Glo); format: cell-based; conditions: Homo sapiens, MV4-11; IC50 class; MV-4-11 cells, RealTime-Glo after 44 hrs of treatment (TABLE 5); read-out: Cell viability classification
CK1α = CK1α (Homo sapiens, UniProt P48729+Q96SW2); experiment: CK1α HiBiT assay in CK1a_HiBiT_Jurkat cells; format: cell-based; conditions: DC50 class, 16 hours, Nano-Glo HiBiT Lytic Detection, read-out: CK1α degradation classification
CK1α, sequence (P48729 whole entry): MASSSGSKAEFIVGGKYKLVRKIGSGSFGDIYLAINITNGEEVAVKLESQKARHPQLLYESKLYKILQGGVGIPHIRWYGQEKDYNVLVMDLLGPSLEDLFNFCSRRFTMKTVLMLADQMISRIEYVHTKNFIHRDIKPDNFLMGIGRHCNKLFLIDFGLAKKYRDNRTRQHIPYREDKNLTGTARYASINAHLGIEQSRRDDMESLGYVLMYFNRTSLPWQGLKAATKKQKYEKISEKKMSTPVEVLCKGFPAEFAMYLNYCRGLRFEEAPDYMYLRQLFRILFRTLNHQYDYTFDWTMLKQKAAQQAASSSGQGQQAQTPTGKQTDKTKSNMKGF
CK1α, sequence (Q96SW2 whole entry): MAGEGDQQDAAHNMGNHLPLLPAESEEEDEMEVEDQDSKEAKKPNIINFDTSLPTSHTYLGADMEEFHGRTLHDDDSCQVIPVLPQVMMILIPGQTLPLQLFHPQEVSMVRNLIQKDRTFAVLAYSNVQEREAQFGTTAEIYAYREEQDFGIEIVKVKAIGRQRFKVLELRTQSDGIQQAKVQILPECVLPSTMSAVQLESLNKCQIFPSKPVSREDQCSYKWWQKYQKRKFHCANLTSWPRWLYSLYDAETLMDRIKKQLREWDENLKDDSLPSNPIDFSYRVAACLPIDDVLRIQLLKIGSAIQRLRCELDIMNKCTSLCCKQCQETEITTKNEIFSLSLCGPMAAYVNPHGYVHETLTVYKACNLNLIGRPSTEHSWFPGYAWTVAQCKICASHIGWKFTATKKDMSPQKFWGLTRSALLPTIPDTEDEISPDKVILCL
CK1α, sequence (Q16531 whole entry partner): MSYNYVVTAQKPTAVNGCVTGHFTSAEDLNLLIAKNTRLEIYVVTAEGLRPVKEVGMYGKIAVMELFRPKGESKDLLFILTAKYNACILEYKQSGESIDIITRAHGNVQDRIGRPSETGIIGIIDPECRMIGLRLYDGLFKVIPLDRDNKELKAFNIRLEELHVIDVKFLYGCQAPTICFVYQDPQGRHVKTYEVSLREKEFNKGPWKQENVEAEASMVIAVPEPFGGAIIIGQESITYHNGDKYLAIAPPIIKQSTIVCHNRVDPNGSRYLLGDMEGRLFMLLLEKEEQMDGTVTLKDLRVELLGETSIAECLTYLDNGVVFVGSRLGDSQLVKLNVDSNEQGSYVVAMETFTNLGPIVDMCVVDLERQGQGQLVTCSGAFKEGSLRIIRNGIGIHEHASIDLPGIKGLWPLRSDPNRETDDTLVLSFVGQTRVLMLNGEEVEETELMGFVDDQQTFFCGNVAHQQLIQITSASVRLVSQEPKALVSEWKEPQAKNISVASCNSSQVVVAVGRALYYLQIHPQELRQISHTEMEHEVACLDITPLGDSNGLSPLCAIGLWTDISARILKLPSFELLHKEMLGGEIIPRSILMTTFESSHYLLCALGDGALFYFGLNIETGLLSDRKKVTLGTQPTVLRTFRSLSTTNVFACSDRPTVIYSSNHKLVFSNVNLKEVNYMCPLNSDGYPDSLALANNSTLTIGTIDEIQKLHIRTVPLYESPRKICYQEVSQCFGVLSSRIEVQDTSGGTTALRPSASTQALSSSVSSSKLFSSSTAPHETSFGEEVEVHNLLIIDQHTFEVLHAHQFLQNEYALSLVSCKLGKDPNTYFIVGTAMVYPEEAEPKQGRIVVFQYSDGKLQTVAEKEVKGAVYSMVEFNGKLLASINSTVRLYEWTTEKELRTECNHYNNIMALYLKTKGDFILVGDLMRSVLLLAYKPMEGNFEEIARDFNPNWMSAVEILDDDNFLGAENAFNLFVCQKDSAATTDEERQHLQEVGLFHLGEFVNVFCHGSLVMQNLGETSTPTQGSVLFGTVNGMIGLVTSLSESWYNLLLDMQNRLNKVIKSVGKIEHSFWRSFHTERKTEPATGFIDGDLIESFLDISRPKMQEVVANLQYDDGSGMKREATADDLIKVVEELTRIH
Experimental: CK1a_HiBiT_Jurkat cells were culture in RPMI 1640 medium (Gibco, 11875093) with 10% FBS under standard tissue culture conditions. Briefly, Compounds of the present disclosure was added to 30,000 cells in a white 96-well plate (9-point dose response, top concentration […], half-log serial dilution, final DMSO concentration 0.5%) and incubated for 16 hours. CK1a level was determined in along with the Nano-Glo HiBiT Lytic Detection system [Promega N3050] with final concentration of 1 x. The luminescence was normalized to that of DMSO-treated samples. DC50 values were obtained using three-parameter non-linear regressions using Prism (GraphPad). The compounds are classified based on DC50 values as follows. • A: DC50 is less than or equal to 1×10^−7; • B: DC50 is greater than 1×10^−7 & less than or equal to 1×10^−6; • C: DC50 is greater than 1×10^−6; • NA: not calculated (no activity detected, <25% viability reduction at 1 uM)

Row | Compound | IC50 (MV-4-11 cells) [nM] | DC50 (CK1α) [nM]
1 | O=C1CCC(N2Cc3c(cccc3N(CC3CC4(CCC4)C3)[C@H]3CC[C@H](NCC4(C(F)(F)F)CC4)CC3)C2=O)C(=O)N1 (stereo partly shown) [Compound 656, 3-(1-oxo-4-{[(1r,4r)-4-({[1-(trifluoromethyl)cyclopropyl]methyl}amino)cyclohexyl]({spiro[3.3]heptan-2-ylmethyl})amino}-3H-isoindol-2-yl)piperidine-2,6-dione; trifluoroacetic acid] | 100 to 1000 | 100 to 1000
2 | CC1(C)CC(CN(c2cccc3c2CN(C2CCC(=O)NC2=O)C3=O)[C@H]2CC[C@H](NCC3(C(F)(F)F)CC3)CC2)C1 (stereo partly shown) [Compound 657, 3-(4-{[(3,3-dimethylcyclobutyl)methyl][(1r,4r)-4-({[1-(trifluoromethyl)cyclopropyl]methyl}amino)cyclohexyl]amino}-1-oxo-3H-isoindol-2-yl)piperidine-2,6-dione; bis(trifluoroacetic acid)] | > 1000 | 100 to 1000
3 | O=C1CCC(N2Cc3c(cc(F)cc3N(CCC3CC3)[C@H]3CC[C@H](NCC4(C(F)(F)F)CC4)CC3)C2=O)C(=O)N1 (stereo partly shown) [Compound 658, 3-{4-[(2-cyclopropylethyl)[(1r,4r)-4-({[1-(trifluoromethyl)cyclopropyl]methyl}amino)cyclohexyl]amino]-6-fluoro-1-oxo-3H-isoindol-2-yl}piperidine-2,6-dione] | 100 to 1000 | ≤ 100
4 | O=C1CCC(N2Cc3c(cc(F)cc3N(CCC3CC3)[C@H]3CC[C@@H](NCC4(C(F)(F)F)CC4)CC3)C2=O)C(=O)N1 (stereo partly shown) [Compound 658A, 3-{4-[(2-cyclopropylethyl)[(1s,4s)-4-({[1-(trifluoromethyl)cyclopropyl]methyl}amino)cyclohexyl]amino]-6-fluoro-1-oxo-3H-isoindol-2-yl}piperidine-2,6-dione] | > 1000 | 100 to 1000
5 | NC(=O)C12CC(N(CCC3CC3)c3cccc4c3CN(C3CCC(=O)NC3=O)C4=O)(C1)C2 (stereo not shown) [Compound 659, 3-[(2-cyclopropylethyl)[2-(2,6-dioxopiperidin-3-yl)-1-oxo-3H-isoindol-4-yl]amino]bicyclo[1.1.1]pentane-1-carboxamide] | 100 to 1000 | ≤ 100
6 | NCC12CC(N(CCC3CC3)c3cccc4c3CN(C3CCC(=O)NC3=O)C4=O)(C1)C2 (stereo not shown) [Compound 660, 3-(4-{[3-(aminomethyl)bicyclo[1.1.1]pentan-1-yl](2-cyclopropylethyl)amino}-1-oxo-3H-isoindol-2-yl)piperidine-2,6-dione] | 100 to 1000 | ≤ 100
7 | O=C1CCC(N2Cc3c(cccc3N(CCC3CC3)[C@H]3CC[C@H](NCc4ncco4)CC3)C2=O)C(=O)N1 (stereo partly shown) [Compound 662] | 100 to 1000 | ≤ 100
8 | O=C1CCC(N2Cc3c(cccc3N(CCC3CC3)[C@H]3CC[C@H](NCc4nccs4)CC3)C2=O)C(=O)N1 (stereo partly shown) [Compound 663, 3-{4-[(2-cyclopropylethyl)[(1r,4r)-4-[(1,3-thiazol-2-ylmethyl)amino]cyclohexyl]amino]-1-oxo-3H-isoindol-2-yl}piperidine-2,6-dione] | 100 to 1000 | ≤ 100
9 | O=C1CCC(N2Cc3c(cccc3N(CCC3CC3)[C@H]3CC[C@H](NCc4ccc(C(F)(F)F)cn4)CC3)C2=O)C(=O)N1 (stereo partly shown) [Compound 664, 3-{4-[(2-cyclopropylethyl)[(1r,4r)-4-({[5-(trifluoromethyl)pyridin-2-yl]methyl}amino)cyclohexyl]amino]-1-oxo-3H-isoindol-2-yl}piperidine-2,6-dione formic acid] | 100 to 1000 | ≤ 100
10 | O=C1CCC(N2Cc3c(cccc3N(CCC3CC3)[C@H]3CC[C@H](NCc4ccccn4)CC3)C2=O)C(=O)N1 (stereo partly shown) [Compound 665, 3-{4-[(2-cyclopropylethyl)[(1r,4r)-4-[(pyridin-2-ylmethyl)amino]cyclohexyl]amino]-1-oxo-3H-isoindol-2-yl}piperidine-2,6-dione; formic acid] | 100 to 1000 | ≤ 100
11 | O=C1CCC(N2Cc3c(cccc3N(CCC3CC3)[C@H]3CC[C@H](NCC4CCCO4)CC3)C2=O)C(=O)N1 (stereo partly shown) [Compound 666, 3-{4-[(2-cyclopropylethyl)[(1r,4r)-4-[(oxolan-2-ylmethyl)amino]cyclohexyl]amino]-1-oxo-3H-isoindol-2-yl}piperidine-2,6-dione] | < 100 | ≤ 100
12 | O=C1CCC(N2Cc3c(cccc3N(CCC3CC3)[C@H]3CC[C@H](N4CCC(F)(F)C4)CC3)C2=O)C(=O)N1 (stereo partly shown) [Compound 670] | 100 to 1000 | ≤ 100
13 | O=C1CCC(N2Cc3c(cccc3N(CCC3CC3)[C@H]3CC[C@H](N4CCC(C(F)(F)F)C4)CC3)C2=O)C(=O)N1 (stereo partly shown) [Compound 672, 3-{4-[(2-cyclopropylethyl)[(1r,4r)-4-[3-(trifluoromethyl)pyrrolidin-1-yl]cyclohexyl]amino]-1-oxo-3H-isoindol-2-yl}piperidine-2,6-dione; trifluoroacetic acid] | 100 to 1000 | ≤ 100
14 | O=C1CCC(N2Cc3c(cccc3N(CCC3CC3)[C@H]3CC[C@H](N4CC(C(F)(F)F)C4)CC3)C2=O)C(=O)N1 (stereo partly shown) [Compound 673] | > 1000 | ≤ 100
15 | O=C1CCC(N2Cc3c(cccc3N(CCC3CC3)[C@H]3CC[C@H](N[C@H]4CC[C@@H]4C(F)(F)F)CC3)C2=O)C(=O)N1 (stereo partly drawn) [Compound 675, 3-{4-[(2-cyclopropylethyl)[(1r,4r)-4-{[(1S,2S)-2-(trifluoromethyl)cyclobutyl]amino}cyclohexyl]amino]-1-oxo-3H-isoindol-2-yl}piperidine-2,6-dione; bis(trifluoroacetic acid)] | 100 to 1000 | ≤ 100
16 | O=C1CCC(N2Cc3c(cccc3N(CCC3CC3)C3CCC(N[C@H]4C[C@@H]4C(F)(F)F)CC3)C2=O)C(=O)N1 (stereo partly drawn) [Compound 678, 3-(4-((2-cyclopropylethyl)(4-(((1S,2S)-2-(trifluoromethyl)cyclopropyl)amino)cyclohexyl)amino)-1-oxoisoindolin-2-yl)piperidine-2,6-dione Trifluoroacetate] | 100 to 1000 | 100 to 1000
17 | O=C1CCC(N2Cc3c(cccc3N(CCC3CC3)C34CC(CNCCC(F)(F)F)(C3)C4)C2=O)C(=O)N1 (stereo not shown) [Compound 703, 3-{4-[(2-cyclopropylethyl)(3-{[(3,3,3-trifluoropropyl)amino]methyl}bicyclo[1.1.1]pentan-1-yl)amino]-1-oxo-3H-isoindol-2-yl}piperidine-2,6-dione] | 100 to 1000 | ≤ 100
18 | O=C1CCC(N2Cc3c(cccc3N(CCC3CC3)[C@H]3CC[C@H](N4CCC(F)(F)CC4)CC3)C2=O)C(=O)N1 (stereo partly shown) [Compound 716, 3-(4-((2-cyclopropylethyl)((1r,4r)-4-(4,4-difluoropiperidin-1-yl)cyclohexyl)amino)-1-oxoisoindolin-2-yl)piperidine-2,6-dione 2,2,2-trifluoroacetate] | 100 to 1000 | ≤ 100

Continued, values first:

Row | IC50 (MV-4-11 cells) [nM] | DC50 (CK1α) [nM] | Compound
19 | < 100 | ≤ 100 | CN(C)[C@H]1CC[C@H](N(CCC2CC2)c2cccc3c2CN(C2CCC(=O)NC2=O)C3=O)CC1 (stereo partly shown) [Compound 668, 3-{4-[(2-cyclopropylethyl)[(1r,4r)-4-(dimethylamino)cyclohexyl]amino]-1-oxo-3H-isoindol-2-yl}piperidine-2,6-dione]
20 | 100 to 1000 | ≤ 100 | O=C1CCC(N2Cc3c(cccc3N(CCC3CC3)[C@H]3CC[C@H](N4CCCC4)CC3)C2=O)C(=O)N1 (stereo partly shown) [Compound 669]
21 | 100 to 1000 | ≤ 100 | O=C1CCC(N2Cc3c(cccc3N(CCC3CC3)[C@H]3CC[C@H](N4CCC(F)C4)CC3)C2=O)C(=O)N1 (stereo partly shown) [Compound 671, 3-{4-[(2-cyclopropylethyl)[(1r,4r)-4-(3-fluoropyrrolidin-1-yl)cyclohexyl]amino]-1-oxo-3H-isoindol-2-yl}piperidine-2,6-dione]
22 | < 100 | ≤ 100 | O=C1CCC(N2Cc3c(cccc3N(CCC3CC3)[C@H]3CC[C@H](N4CCOCC4)CC3)C2=O)C(=O)N1 (stereo partly shown) [Compound 674, 3-{4-[(2-cyclopropylethyl)[(1r,4r)-4-(morpholin-4-yl)cyclohexyl]amino]-1-oxo-3H-isoindol-2-yl}piperidine-2,6-dione]
23 | 100 to 1000 | ≤ 100 | COCCN(C)[C@H]1CC[C@H](N(CCC2CC2)c2cccc3c2CN(C2CCC(=O)NC2=O)C3=O)CC1 (stereo partly shown) [Compound 680]
24 | < 100 | ≤ 100 | CN(CCCC(F)(F)F)[C@H]1CC[C@H](N(CCC2CC2)c2cccc3c2CN(C2CCC(=O)NC2=O)C3=O)CC1 (stereo partly shown) [Compound 681, 3-{4-[(2-cyclopropylethyl)[(1r,4r)-4-[methyl(4,4,4-trifluorobutyl)amino]cyclohexyl]amino]-1-oxo-3H-isoindol-2-yl}piperidine-2,6-dione]
25 | < 100 | ≤ 100 | CN(CCC(F)(F)F)[C@H]1CC[C@H](N(CCC2CC2)c2cccc3c2CN(C2CCC(=O)NC2=O)C3=O)CC1 (stereo partly shown) [Compound 682]
26 | < 100 | ≤ 100 | CN(CCC(F)F)[C@H]1CC[C@H](N(CCC2CC2)c2cccc3c2CN(C2CCC(=O)NC2=O)C3=O)CC1 (stereo partly shown) [Compound 683, 3-(4-((2-cyclopropylethyl)((1r,4r)-4-((3,3-difluoropropyl)(methyl)amino)cyclohexyl)amino)-1-oxoisoindolin-2-yl)piperidine-2,6-dione tris(2,2,2-trifluoroacetate)]
